According to patent publication US20240415914A1, “Water Dispersible Cannabinoid Compositions” (priority 2021, published 2024):

Test: Stability of cannabinoid and Vitamin E components of Beverage 1 (AB White) stored at 8° C. and 21-25° C., LCMSMS over 570 days
Type: physicochemical
Settings: for Stability in AB White, 8° C. (content by LCMSMS): beverage stored at 8° C.; for Stability in AB White, 21-25° C. (content by LCMSMS): beverage stored at 21-25° C.
Protocol: The LCMSMS was calibrated for 0-1000 ng/ml cannabinoids with the same resin material used in the preparation of the concentrates. At each time period, 100 ml of beverage was diluted with 10 ml of methanol and injected into the LCMSMS for analysis.

**Q.** Which results are given for `CCCCCc1cc(O)c(C/C=C(\C)CCC=C(C)C)c(O)c1` [CBG, cannabigerol]?
**A.** Stability in AB White, 8° C. (content by LCMSMS) (day 0): 4.87 µg/mL; Stability in AB White, 8° C. (content by LCMSMS) (day 1): 4.74 µg/mL; Stability in AB White, 8° C. (content by LCMSMS) (day 2): 4.91 µg/mL; Stability in AB White, 8° C. (content by LCMSMS) (day 3): 4.74 µg/mL; Stability in AB White, 8° C. (content by LCMSMS) (day 5): 4.88 µg/mL; Stability in AB White, 8° C. (content by LCMSMS) (day 8): 4.86 µg/mL; Stability in AB White, 8° C. (content by LCMSMS) (day 9): 4.89 µg/mL; Stability in AB White, 8° C. (content by LCMSMS) (day 10): 4.77 µg/mL; Stability in AB White, 8° C. (content by LCMSMS) (day 11): 4.87 µg/mL; Stability in AB White, 8° C. (content by LCMSMS) (day 12): 4.87 µg/mL; Stability in AB White, 8° C. (content by LCMSMS) (day 15): 4.81 µg/mL; Stability in AB White, 8° C. (content by LCMSMS) (day 16): 4.84 µg/mL; Stability in AB White, 8° C. (content by LCMSMS) (day 17): 4.78 µg/mL; Stability in AB White, 8° C. (content by LCMSMS) (day 18): 4.81 µg/mL; Stability in AB White, 8° C. (content by LCMSMS) (day 19): 4.83 µg/mL; Stability in AB White, 8° C. (content by LCMSMS) (day 22): 4.75 µg/mL; Stability in AB White, 8° C. (content by LCMSMS) (day 23): 4.89 µg/mL; Stability in AB White, 8° C. (content by LCMSMS) (day 24): 4.83 µg/mL; Stability in AB White, 8° C. (content by LCMSMS) (day 25): 4.89 µg/mL; Stability in AB White, 8° C. (content by LCMSMS) (day 26): 4.77 µg/mL; Stability in AB White, 8° C. (content by LCMSMS) (day 29): 4.91 µg/mL; Stability in AB White, 8° C. (content by LCMSMS) (day 30): 4.79 µg/mL; Stability in AB White, 8° C. (content by LCMSMS) (day 60): 4.68 µg/mL; Stability in AB White, 8° C. (content by LCMSMS) (day 90): 4.66 µg/mL; Stability in AB White, 8° C. (content by LCMSMS) (day 120): 4.89 µg/mL; Stability in AB White, 8° C. (content by LCMSMS) (day 150): 4.83 µg/mL; Stability in AB White, 8° C. (content by LCMSMS) (day 180): 4.71 µg/mL; Stability in AB White, 8° C. (content by LCMSMS) (day 210): 4.73 µg/mL; Stability in AB White, 8° C. (content by LCMSMS) (day 240): 4.69 µg/mL; Stability in AB White, 8° C. (content by LCMSMS) (day 270): 4.72 µg/mL; Stability in AB White, 8° C. (content by LCMSMS) (day 300): 4.74 µg/mL; Stability in AB White, 8° C. (content by LCMSMS) (day 330): 4.69 µg/mL; Stability in AB White, 8° C. (content by LCMSMS) (day 360): 4.66 µg/mL; Stability in AB White, 8° C. (content by LCMSMS) (day 390): 4.68 µg/mL; Stability in AB White, 8° C. (content by LCMSMS) (day 420): 4.66 µg/mL; Stability in AB White, 8° C. (content by LCMSMS) (day 450): 4.68 µg/mL; Stability in AB White, 8° C. (content by LCMSMS) (day 480): 4.64 µg/mL; Stability in AB White, 8° C. (content by LCMSMS) (day 510): 4.49 µg/mL; Stability in AB White, 8° C. (content by LCMSMS) (day 540): 4.53 µg/mL; Stability in AB White, 8° C. (content by LCMSMS) (day 570): 4.46 µg/mL; Stability in AB White, 21-25° C. (content by LCMSMS) (day 0): 4.87 µg/mL; Stability in AB White, 21-25° C. (content by LCMSMS) (day 1): 4.73 µg/mL; Stability in AB White, 21-25° C. (content by LCMSMS) (day 2): 4.72 µg/mL; Stability in AB White, 21-25° C. (content by LCMSMS) (day 3): 4.75 µg/mL; Stability in AB White, 21-25° C. (content by LCMSMS) (day 5): 4.89 µg/mL; Stability in AB White, 21-25° C. (content by LCMSMS) (day 8): 4.90 µg/mL; Stability in AB White, 21-25° C. (content by LCMSMS) (day 9): 4.79 µg/mL; Stability in AB White, 21-25° C. (content by LCMSMS) (day 10): 4.68 µg/mL; Stability in AB White, 21-25° C. (content by LCMSMS) (day 11): 4.74 µg/mL; Stability in AB White, 21-25° C. (content by LCMSMS) (day 12): 4.88 µg/mL; Stability in AB White, 21-25° C. (content by LCMSMS) (day 15): 4.87 µg/mL; Stability in AB White, 21-25° C. (content by LCMSMS) (day 16): 4.80 µg/mL; Stability in AB White, 21-25° C. (content by LCMSMS) (day 17): 4.80 µg/mL; Stability in AB White, 21-25° C. (content by LCMSMS) (day 18): 4.72 µg/mL; Stability in AB White, 21-25° C. (content by LCMSMS) (day 19): 4.68 µg/mL; Stability in AB White, 21-25° C. (content by LCMSMS) (day 22): 4.68 µg/mL; Stability in AB White, 21-25° C. (content by LCMSMS) (day 23): 4.85 µg/mL; Stability in AB White, 21-25° C. (content by LCMSMS) (day 24): 4.80 µg/mL; Stability in AB White, 21-25° C. (content by LCMSMS) (day 25): 4.86 µg/mL; Stability in AB White, 21-25° C. (content by LCMSMS) (day 26): 4.78 µg/mL; Stability in AB White, 21-25° C. (content by LCMSMS) (day 29): 4.76 µg/mL; Stability in AB White, 21-25° C. (content by LCMSMS) (day 30): 4.73 µg/mL; Stability in AB White, 21-25° C. (content by LCMSMS) (day 60): 4.83 µg/mL; Stability in AB White, 21-25° C. (content by LCMSMS) (day 90): 4.65 µg/mL; Stability in AB White, 21-25° C. (content by LCMSMS) (day 120): 4.59 µg/mL; Stability in AB White, 21-25° C. (content by LCMSMS) (day 150): 4.63 µg/mL; Stability in AB White, 21-25° C. (content by LCMSMS) (day 180): 4.79 µg/mL; Stability in AB White, 21-25° C. (content by LCMSMS) (day 210): 4.75 µg/mL; Stability in AB White, 21-25° C. (content by LCMSMS) (day 240): 4.79 µg/mL; Stability in AB White, 21-25° C. (content by LCMSMS) (day 270): 4.62 µg/mL; Stability in AB White, 21-25° C. (content by LCMSMS) (day 300): 4.67 µg/mL; Stability in AB White, 21-25° C. (content by LCMSMS) (day 330): 4.71 µg/mL; Stability in AB White, 21-25° C. (content by LCMSMS) (day 360): 4.69 µg/mL; Stability in AB White, 21-25° C. (content by LCMSMS) (day 390): 4.70 µg/mL; Stability in AB White, 21-25° C. (content by LCMSMS) (day 420): 4.72 µg/mL; Stability in AB White, 21-25° C. (content by LCMSMS) (day 450): 4.73 µg/mL; Stability in AB White, 21-25° C. (content by LCMSMS) (day 480): 4.46 µg/mL; Stability in AB White, 21-25° C. (content by LCMSMS) (day 510): 4.51 µg/mL; Stability in AB White, 21-25° C. (content by LCMSMS) (day 540): 4.48 µg/mL; Stability in AB White, 21-25° C. (content by LCMSMS) (day 570): 4.47 µg/mL
